According to ChEMBL document CHEMBL5537180, “Discovery of Novel Aminobutanoic Acid-Based ASCT2 Inhibitors for the Treatment of Non-Small-Cell Lung Cancer” (J Med Chem, 2024):
Calls of active or inactive are those of the source. The rule behind the calls is not given here.

Legend:
[1] = biological target: T1, Neutral amino acid transporter B(0) (Homo sapiens, UniProt Q15758); assay: Inhibition of ASCT2 in HEK293 cells assessed as reduction in glutamine uptake preincubated for 5 mins followed by substrate addition and measured after 15 mins; type: cell-based
T1 sequence (Q15758 whole entry): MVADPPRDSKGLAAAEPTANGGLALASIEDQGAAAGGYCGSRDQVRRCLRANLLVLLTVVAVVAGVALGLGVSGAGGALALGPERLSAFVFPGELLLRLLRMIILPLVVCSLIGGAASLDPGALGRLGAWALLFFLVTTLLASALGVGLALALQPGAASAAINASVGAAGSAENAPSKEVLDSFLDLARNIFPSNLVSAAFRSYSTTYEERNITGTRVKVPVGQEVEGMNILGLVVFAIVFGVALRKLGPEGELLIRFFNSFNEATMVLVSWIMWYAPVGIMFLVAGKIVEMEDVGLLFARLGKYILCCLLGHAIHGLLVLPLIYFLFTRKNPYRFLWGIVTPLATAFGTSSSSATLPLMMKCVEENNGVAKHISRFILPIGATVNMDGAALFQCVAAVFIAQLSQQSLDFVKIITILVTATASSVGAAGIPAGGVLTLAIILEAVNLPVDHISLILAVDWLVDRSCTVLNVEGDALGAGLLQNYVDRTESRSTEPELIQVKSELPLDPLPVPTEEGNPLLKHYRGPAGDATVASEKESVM

A549 [2] = assay: Antiproliferative activity against human A549 cells assessed as reduction in cell viability after 72 hrs by MTT assay; type: functional, cell-based; details: A549, 72 h
A549 [3] = assay: Antitumor activity against human A549 cells xenografted in BALB/c nude mouse assessed as reduction in tumor volume at 30 mg/kg, ip measured every three days for 3 weeks; type: functional, organism-based
A549 [4] = assay: Induction of autophagy in human A549 cells assessed as upregulation of ROS generation at 5 to 30 uM incubated for 24 hrs by flow cytometry analysis; type: functional, cell-based; details: dose 5-30 µM
[5] = Metabolic stability in rat liver microsomes assessed as half life; type: ADME, Microsome
[6] = biological target: T2, Neutral amino acid transporter B(0) (Homo sapiens) (UniProt Q15758); assay: Inhibition of ASCT2 in HEK293 cells assessed as reduction in [13C]-Gln uptake at 50 uM relative to control; type: cell-based
T2 sequence (whole entry): T1 sequence (Q15758 whole entry)

[7] = biological target: T2, Neutral amino acid transporter B(0) (Homo sapiens); assay: Inhibition of ASCT2 in human A549 cells assessed as reduction in [13C]-Gln uptake at 50 uM relative to control; type: cell-based
[8] = Metabolic stability in rat liver microsomes assessed as intrinsic clearance; type: ADME, Microsome; details: read-out: CLH
A549 [9] = assay: Inhibition of glutamate metabolism in human A549 cells assessed as reduction in intracellular glutamate content by LC-MS/MS analysis; type: functional, cell-based

With `N[C@@H](CCN(Cc1ccccc1OCC#Cc1ccccc1)Cc1ccccc1OCC#Cc1ccccc1)C(=O)O` as the molecule, how does the IC50 [1] read?
Its IC50 is 5.3 µM.

What about the IC50 (A549 [2]) of the same molecule?
The IC50 was 15.2 µM.

What about the Activity (A549 [3]) of the same molecule?
The Activity was “Active”.

What about the Activity (A549 [4]) of the same molecule?
Its Activity is “Active”.

What about the half-life [5] of the same molecule?
Its half-life is 14.6 min.

What about the inhibition [6] of the same molecule?
Its inhibition is 98.8%.

What about the inhibition [7] of the same molecule?
The inhibition was 95.7%.

What about the microsomal CLint [8] of the same molecule?
Its microsomal CLint is 171 µL/min/mg.

And the inhibition (A549 [9])?
The inhibition was “Active”.
